Experimental data published in ChEMBL document CHEMBL3813616, “Discovery of novel 7-azaindoles as PDK1 inhibitors” (Bioorg Med Chem Lett, 2016).
Each block holds one compound with its values, some of them ahead of it.

Key:
[1] = Solubility of the compound; assay type: physicochemical
[2] = biological target: Mitogen-activated protein kinase kinase kinase 9 (Homo sapiens) (UniProt P80192); assay: Inhibition of human MLK1 (132 to 413 residues) assessed as enzyme activity at 1 uM using 33P ATP by radioactive filter binding assay; parameters: scale not given: the % may be the effect or the level left
[3] = biological target: Protein kinase C gamma type (Homo sapiens) (UniProt P05129); assay: Inhibition of human PKCgamma (1 to 697 residues) assessed as enzyme activity at 1 uM using 33P ATP by radioactive filter binding assay; parameters: scale not given: the % may be the effect or the level left
[4] = biological target: Ribosomal protein S6 kinase alpha-1 (Homo sapiens) (UniProt Q15418); assay: Inhibition of human RSK1 (1 to 735 residues) assessed as enzyme activity at 1 uM using 33P ATP by radioactive filter binding assay; parameters: scale not given: the % may be the effect or the level left
Chain of Ribosomal protein S6 kinase alpha-1 (Homo sapiens) (Q15418 whole entry, the tested form may be a part): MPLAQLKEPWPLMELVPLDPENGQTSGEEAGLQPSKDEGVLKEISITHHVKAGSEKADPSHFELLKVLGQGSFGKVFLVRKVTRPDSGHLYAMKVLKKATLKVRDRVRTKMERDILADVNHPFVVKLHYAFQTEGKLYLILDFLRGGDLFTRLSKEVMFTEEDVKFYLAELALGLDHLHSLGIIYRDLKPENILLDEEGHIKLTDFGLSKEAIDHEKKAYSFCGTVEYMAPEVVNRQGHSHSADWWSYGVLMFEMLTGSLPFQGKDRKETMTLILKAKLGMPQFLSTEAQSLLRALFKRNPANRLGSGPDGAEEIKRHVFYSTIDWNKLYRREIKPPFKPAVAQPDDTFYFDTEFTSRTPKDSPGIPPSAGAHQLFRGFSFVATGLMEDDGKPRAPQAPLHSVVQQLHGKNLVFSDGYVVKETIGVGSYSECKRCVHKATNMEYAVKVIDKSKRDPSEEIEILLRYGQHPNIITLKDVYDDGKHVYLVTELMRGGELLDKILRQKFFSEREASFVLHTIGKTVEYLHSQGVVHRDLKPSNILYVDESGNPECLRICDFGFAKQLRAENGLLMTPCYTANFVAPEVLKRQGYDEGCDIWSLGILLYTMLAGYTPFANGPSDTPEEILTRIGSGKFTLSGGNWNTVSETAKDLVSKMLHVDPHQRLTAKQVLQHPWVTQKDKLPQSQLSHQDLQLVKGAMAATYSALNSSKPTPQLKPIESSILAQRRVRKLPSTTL

[5] = biological target: Serine/threonine-protein kinase PAK 2 (Homo sapiens) (UniProt Q13177); assay: Inhibition of human PAK2 (1 to 524 residues) assessed as enzyme activity at 1 uM using 33P ATP by radioactive filter binding assay; parameters: scale not given: the % may be the effect or the level left
[6] = biological target: Tyrosine-protein kinase ABL1 (Homo sapiens) (UniProt P00519); assay: Inhibition of human ABL (118 to 535 residues) assessed as enzyme activity at 1 uM using 33P ATP by radioactive filter binding assay; parameters: scale not given: the % may be the effect or the level left
[7] = biological target: Serine/threonine-protein kinase MARK2 (Homo sapiens) (UniProt Q7KZI7); assay: Inhibition of human MARK2 (2 to 691 residues) assessed as enzyme activity at 1 uM using 33P ATP by radioactive filter binding assay; parameters: scale not given: the % may be the effect or the level left
[8] = biological target: Receptor-interacting serine/threonine-protein kinase 2 (Homo sapiens) (UniProt O43353); assay: Inhibition of human RIPK2 (2 to 311 residues) assessed as enzyme activity at 1 uM using 33P ATP by radioactive filter binding assay; parameters: scale not given: the % may be the effect or the level left
[9] = biological target: Aurora kinase A (Homo sapiens) (UniProt O14965); assay: Inhibition of human Aurora A (2 to 403 residues) assessed as enzyme activity at 1 uM using 33P ATP by radioactive filter binding assay; parameters: scale not given: the % may be the effect or the level left
[10] = biological target: Dual specificity protein kinase TTK (Homo sapiens) (UniProt P33981); assay: Inhibition of human TTK (1 to 857 residues) assessed as enzyme activity at 1 uM using 33P ATP by radioactive filter binding assay; parameters: scale not given: the % may be the effect or the level left
[11] = biological target: Mitogen-activated protein kinase 1 (Homo sapiens) (UniProt P28482); assay: Inhibition of human ERK2 (2 to 360 residues) assessed as enzyme activity at 1 uM using 33P ATP by radioactive filter binding assay; parameters: scale not given: the % may be the effect or the level left
[12] = biological target: Ephrin type-B receptor 2 (Homo sapiens) (UniProt P29323); assay: Inhibition of human EPHB2 (560 to 987 residues) assessed as enzyme activity at 1 uM using 33P ATP by radioactive filter binding assay; parameters: scale not given: the % may be the effect or the level left
[13] = biological target: Mitogen-activated protein kinase kinase kinase 7 (Homo sapiens) (UniProt O43318); assay: Inhibition of human TAB1 fused TAK1 (1 to 303 residues) assessed as enzyme activity at 1 uM using 33P ATP by radioactive filter binding assay; parameters: scale not given: the % may be the effect or the level left
[14] = biological target: Tyrosine-protein kinase ZAP-70 (Homo sapiens) (UniProt P43403); assay: Inhibition of human ZAP70 (1 to 619 residues) assessed as enzyme activity at 1 uM using 33P ATP by radioactive filter binding assay; parameters: scale not given: the % may be the effect or the level left
[15] = biological target: Ephrin type-B receptor 4 (Homo sapiens) (UniProt P54760); assay: Inhibition of human EPHB4 (561 to 987 residues) assessed as enzyme activity at 1 uM using 33P ATP by radioactive filter binding assay; parameters: scale not given: the % may be the effect or the level left
[16] = biological target: Ephrin type-B receptor 1 (Homo sapiens) (UniProt P54762); assay: Inhibition of human EPHB1 (565 to 984 residues) assessed as enzyme activity at 1 uM using 33P ATP by radioactive filter binding assay; parameters: scale not given: the % may be the effect or the level left
[17] = biological target: Receptor tyrosine-protein kinase erbB-4 (Homo sapiens) (UniProt Q15303); assay: Inhibition of human HER4 (706 to 991 residues) assessed as enzyme activity at 1 uM using 33P ATP by radioactive filter binding assay; parameters: scale not given: the % may be the effect or the level left
Chain of Receptor tyrosine-protein kinase erbB-4 (Homo sapiens) (Q15303 whole entry, the tested form may be a part): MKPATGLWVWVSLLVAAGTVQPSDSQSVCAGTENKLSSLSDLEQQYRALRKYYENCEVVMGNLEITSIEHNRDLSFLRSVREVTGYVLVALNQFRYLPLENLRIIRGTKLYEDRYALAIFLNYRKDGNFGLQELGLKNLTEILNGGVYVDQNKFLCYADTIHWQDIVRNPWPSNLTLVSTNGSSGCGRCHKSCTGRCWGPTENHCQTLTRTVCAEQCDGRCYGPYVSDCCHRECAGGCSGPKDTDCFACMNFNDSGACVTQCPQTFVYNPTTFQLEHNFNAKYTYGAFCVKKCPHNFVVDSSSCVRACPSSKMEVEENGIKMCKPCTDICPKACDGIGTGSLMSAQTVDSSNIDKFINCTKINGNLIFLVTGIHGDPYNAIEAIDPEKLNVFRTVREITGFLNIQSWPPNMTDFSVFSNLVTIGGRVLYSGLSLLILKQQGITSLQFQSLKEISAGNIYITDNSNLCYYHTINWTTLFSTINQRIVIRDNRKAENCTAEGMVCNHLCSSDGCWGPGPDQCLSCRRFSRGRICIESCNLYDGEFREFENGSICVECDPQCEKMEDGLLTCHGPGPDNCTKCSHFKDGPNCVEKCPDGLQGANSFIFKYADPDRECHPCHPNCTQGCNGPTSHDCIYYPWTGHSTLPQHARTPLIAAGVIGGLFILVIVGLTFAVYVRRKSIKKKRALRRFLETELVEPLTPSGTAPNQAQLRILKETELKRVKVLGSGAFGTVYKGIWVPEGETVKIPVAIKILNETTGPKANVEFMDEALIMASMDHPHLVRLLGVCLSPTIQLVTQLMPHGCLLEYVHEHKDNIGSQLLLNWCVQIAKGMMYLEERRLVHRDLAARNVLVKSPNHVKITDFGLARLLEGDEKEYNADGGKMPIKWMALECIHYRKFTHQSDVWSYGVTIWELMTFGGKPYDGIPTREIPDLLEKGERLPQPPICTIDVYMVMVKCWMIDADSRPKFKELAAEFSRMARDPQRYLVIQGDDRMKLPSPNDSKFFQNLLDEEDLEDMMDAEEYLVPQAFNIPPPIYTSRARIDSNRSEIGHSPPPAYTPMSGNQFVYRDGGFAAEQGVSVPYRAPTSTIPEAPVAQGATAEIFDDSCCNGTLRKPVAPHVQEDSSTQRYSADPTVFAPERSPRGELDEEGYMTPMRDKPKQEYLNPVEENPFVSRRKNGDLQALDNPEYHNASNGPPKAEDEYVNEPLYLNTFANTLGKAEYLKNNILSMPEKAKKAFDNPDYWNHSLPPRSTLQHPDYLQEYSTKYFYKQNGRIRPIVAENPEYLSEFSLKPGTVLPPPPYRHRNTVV

[18] = biological target: Interleukin-1 receptor-associated kinase 4 (Homo sapiens) (UniProt Q9NWZ3); assay: Inhibition of human IRAK4 (14 to 460 residues) assessed as enzyme activity at 1 uM using 33P ATP by radioactive filter binding assay; parameters: scale not given: the % may be the effect or the level left
Chain of Interleukin-1 receptor-associated kinase 4 (Homo sapiens) (Q9NWZ3 whole entry, the tested form may be a part): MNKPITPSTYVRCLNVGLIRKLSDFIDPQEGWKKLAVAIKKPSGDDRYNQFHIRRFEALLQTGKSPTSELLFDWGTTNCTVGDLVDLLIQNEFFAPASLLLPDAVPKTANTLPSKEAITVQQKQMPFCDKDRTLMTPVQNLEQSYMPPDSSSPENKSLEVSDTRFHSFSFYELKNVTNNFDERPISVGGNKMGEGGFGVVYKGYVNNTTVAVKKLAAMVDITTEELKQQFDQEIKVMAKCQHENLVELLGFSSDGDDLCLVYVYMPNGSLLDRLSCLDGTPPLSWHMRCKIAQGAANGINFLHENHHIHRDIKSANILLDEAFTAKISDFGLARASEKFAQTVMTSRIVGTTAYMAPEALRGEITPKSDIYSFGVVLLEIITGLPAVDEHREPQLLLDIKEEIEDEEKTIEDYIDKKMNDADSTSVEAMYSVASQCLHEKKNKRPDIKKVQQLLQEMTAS

[19] = biological target: Interleukin-1 receptor-associated kinase 1 (Homo sapiens) (UniProt P51617); assay: Inhibition of human IRAK1 (1 to 712 residues) assessed as enzyme activity at 1 uM using 33P ATP by radioactive filter binding assay; parameters: scale not given: the % may be the effect or the level left
[20] = biological target: Serine/threonine-protein kinase 16 (Homo sapiens) (UniProt O75716); assay: Inhibition of human MPSK1 (1 to 305 residues) assessed as enzyme activity at 1 uM using 33P ATP by radioactive filter binding assay; parameters: scale not given: the % may be the effect or the level left
[21] = biological target: Misshapen-like kinase 1 (Homo sapiens) (UniProt Q8N4C8); assay: Inhibition of human MINK1 (1 to 320 residues) assessed as enzyme activity at 1 uM using 33P ATP by radioactive filter binding assay; parameters: scale not given: the % may be the effect or the level left
Chain of Misshapen-like kinase 1 (Homo sapiens) (Q8N4C8 whole entry, looked up, the tested form may be a part): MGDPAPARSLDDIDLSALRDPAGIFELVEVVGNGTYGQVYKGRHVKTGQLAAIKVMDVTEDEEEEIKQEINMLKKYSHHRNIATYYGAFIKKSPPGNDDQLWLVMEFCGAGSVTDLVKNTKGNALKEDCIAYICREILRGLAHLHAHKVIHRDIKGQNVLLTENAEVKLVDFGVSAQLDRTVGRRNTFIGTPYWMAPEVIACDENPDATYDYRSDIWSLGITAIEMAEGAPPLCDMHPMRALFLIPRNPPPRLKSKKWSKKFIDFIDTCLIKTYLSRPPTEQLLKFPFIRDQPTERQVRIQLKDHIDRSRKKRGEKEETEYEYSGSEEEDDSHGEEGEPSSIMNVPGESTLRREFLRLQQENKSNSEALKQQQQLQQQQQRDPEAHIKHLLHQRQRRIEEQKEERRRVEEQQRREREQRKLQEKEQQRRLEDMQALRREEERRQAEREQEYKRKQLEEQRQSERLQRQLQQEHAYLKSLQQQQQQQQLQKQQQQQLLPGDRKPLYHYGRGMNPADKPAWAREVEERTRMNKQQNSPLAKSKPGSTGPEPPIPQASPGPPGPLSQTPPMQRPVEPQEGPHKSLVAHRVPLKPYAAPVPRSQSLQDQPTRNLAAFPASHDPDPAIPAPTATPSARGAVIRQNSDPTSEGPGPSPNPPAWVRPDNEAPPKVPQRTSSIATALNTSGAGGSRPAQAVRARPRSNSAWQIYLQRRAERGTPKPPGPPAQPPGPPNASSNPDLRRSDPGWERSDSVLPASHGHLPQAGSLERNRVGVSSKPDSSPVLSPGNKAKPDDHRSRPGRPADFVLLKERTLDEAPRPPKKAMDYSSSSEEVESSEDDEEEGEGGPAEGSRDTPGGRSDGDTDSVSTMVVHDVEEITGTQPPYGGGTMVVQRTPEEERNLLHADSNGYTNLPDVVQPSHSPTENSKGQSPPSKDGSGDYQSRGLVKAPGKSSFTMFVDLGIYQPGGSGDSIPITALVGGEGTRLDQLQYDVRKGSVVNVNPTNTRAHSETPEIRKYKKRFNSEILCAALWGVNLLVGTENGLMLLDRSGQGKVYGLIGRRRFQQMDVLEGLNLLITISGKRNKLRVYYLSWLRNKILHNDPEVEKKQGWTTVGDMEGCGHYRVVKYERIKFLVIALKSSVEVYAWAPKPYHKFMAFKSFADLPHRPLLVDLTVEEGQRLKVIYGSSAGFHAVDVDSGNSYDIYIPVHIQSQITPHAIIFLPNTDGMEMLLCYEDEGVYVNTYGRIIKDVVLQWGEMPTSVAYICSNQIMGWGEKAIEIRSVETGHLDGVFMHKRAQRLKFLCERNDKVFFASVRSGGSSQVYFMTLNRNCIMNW

Homo sapiens = species: Homo sapiens; assay: Selectivity ratio of IC50 for PI3K alpha (unknown origin) to IC50 for human His6-tagged PDK1
[22] = biological target: T1, 3-phosphoinositide-dependent protein kinase 1 (Homo sapiens) (UniProt O15530); assay: Selectivity ratio of IC50 for PDK1-mediated AKT phosphorylation at Thr308 in human PC3 cells to IC50 for human His6-tagged PDK1; assay type: cell-based; conditions: PC-3
T1 sequence (whole entry): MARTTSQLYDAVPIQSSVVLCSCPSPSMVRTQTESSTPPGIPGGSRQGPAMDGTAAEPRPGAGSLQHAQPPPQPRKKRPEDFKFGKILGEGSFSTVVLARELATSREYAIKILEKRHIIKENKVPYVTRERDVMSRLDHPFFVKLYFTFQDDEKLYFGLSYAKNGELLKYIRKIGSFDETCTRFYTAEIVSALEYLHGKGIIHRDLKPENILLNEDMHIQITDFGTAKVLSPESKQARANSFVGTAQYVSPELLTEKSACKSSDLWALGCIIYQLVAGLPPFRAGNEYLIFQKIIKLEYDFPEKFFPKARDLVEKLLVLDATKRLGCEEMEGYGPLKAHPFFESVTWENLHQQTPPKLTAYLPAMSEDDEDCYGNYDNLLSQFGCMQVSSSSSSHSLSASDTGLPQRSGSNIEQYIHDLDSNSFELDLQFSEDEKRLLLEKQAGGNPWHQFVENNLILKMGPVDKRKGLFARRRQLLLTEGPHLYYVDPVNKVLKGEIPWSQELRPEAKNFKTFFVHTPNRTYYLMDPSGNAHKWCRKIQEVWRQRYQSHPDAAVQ

MAPK3 (ERK1) = assay: Inhibition of human MAPK3 (2 to 379 residues) assessed as enzyme activity at 1 uM using 33P ATP by radioactive filter binding assay; parameters: scale not given: the % may be the effect or the level left
[23] = biological target: Phosphatidylinositol 4,5-bisphosphate 3-kinase catalytic subunit alpha isoform (Homo sapiens, UniProt P42336); assay: Inhibition of PI3K alpha (unknown origin) at 10 uM
Chain of Phosphatidylinositol 4,5-bisphosphate 3-kinase catalytic subunit alpha isoform (P42336 whole entry, canonical isoform): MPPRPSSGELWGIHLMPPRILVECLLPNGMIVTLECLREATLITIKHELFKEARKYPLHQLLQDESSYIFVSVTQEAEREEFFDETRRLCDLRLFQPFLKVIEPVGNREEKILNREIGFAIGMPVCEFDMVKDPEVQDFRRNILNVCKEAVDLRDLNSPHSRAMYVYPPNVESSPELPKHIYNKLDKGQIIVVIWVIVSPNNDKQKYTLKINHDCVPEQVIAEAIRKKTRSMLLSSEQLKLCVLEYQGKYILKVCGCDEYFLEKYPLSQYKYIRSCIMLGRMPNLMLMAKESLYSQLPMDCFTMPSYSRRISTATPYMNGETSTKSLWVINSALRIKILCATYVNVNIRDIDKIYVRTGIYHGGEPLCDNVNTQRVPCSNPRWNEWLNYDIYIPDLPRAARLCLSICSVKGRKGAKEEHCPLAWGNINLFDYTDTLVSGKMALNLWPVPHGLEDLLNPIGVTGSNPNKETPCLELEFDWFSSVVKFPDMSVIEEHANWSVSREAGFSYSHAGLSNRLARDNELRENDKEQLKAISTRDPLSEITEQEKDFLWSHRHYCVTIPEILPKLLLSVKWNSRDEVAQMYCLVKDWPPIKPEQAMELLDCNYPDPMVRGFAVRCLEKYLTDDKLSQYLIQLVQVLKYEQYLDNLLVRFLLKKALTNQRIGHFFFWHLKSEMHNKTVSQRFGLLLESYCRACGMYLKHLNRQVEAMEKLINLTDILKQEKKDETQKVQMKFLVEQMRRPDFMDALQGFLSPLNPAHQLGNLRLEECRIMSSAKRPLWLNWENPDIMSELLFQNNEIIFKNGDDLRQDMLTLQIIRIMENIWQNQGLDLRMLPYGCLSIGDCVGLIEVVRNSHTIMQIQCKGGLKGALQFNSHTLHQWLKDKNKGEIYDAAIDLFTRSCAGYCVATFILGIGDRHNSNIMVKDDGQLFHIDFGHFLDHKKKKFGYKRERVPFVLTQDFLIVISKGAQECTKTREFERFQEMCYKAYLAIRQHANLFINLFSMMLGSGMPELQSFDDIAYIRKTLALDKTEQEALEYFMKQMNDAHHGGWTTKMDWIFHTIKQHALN

solubility [1]: > 1000 µg/mL
Compound: CCCCc1cc(-c2c[nH]c3ncccc23)nc(N)n1

Activity [2]: -20%
Activity [3]: -5%
Activity [4]: -69%
Activity [5]: 1%
Activity [6]: 1%
Activity [7]: -23%
Activity [8]: -13%
Activity [9]: 1%
Activity [10]: -57%
Activity [11]: -14%
Activity [12]: 15%
Activity [13]: -82%
Activity [14]: -3%
Activity [15]: 4%
Activity [16]: -10%
Activity [17]: -17%
Activity [18]: -36%
Activity [19]: -49%
Activity [20]: -4%
Activity [21]: -78%
Compound: Nc1nccc(-c2c[nH]c3ncccc23)n1 [MERIOLIN 1]

Ratio IC50 (Homo sapiens): 65
Ratio IC50 [22]: 30
Activity (MAPK3 (ERK1)): -32%
Compound: CCCCc1cc(-c2c[nH]c3ncc(-c4cnn(C5CCNCC5)c4)cc23)nc(N)n1

inhibition [23]: 80%
Compound: CCc1cc(-c2c[nH]c3ncc(-c4cnn(C5CCNCC5)c4)cc23)nc(N)n1
